Assay results published in PMC12668308, “A Novel Antimalarial Agent that Inhibits Protein Synthesis in Plasmodium falciparum” (Angewandte Chemie (International Ed. in English), 2025).

Assays:
Assay in all cases: iSPP profiling, P. falciparum lysate
Type in all cases: binding, Plasmodium falciparum
[1] = tested on: Uncharacterized protein (W7JQ86)
Method: (§1) P. falciparum NF54 lysates were extracted as described in ^[26^] . The parasite asynchronous culture was extracted once 3-5% parasitemia was reached. Saponin lysis was done as described in 2.2.10. Once the parasite pellet was obtained, 2.5 volumes of ice-cold lysis buffer (50 mM Tris/HCl pH 7.5 (Avantor), 5% glycerol (Sigma-Aldrich), 150 mM NaCl (Carl Roth), 1.5 mM MgCl2 (Sigma-Aldrich), 1 mM DTT (Carl Roth), 0.8% IGEPAL CA-630 (Sigma-Aldrich), 1X Halt Protease and Phosphatase Inhibitor-Cocktails EDTA-free (Thermo Fisher Scientific)) was added to the parasite pellet. The lysate solution was subjected to three cycles of flash freeze-thaw with liquid nitrogen and ddH2O at RT. The lysates were centrifuged at 20,000 g for 20 minutes at 4 °C. The soluble protein fraction (supernatant) was collected and the protein content was quantified using the BCA assay (Pierce™ BCA Protein Assay Kit, Thermo Fisher Scientific). The lysate was stored at -80 °C until further use.
(§2) The P. falciparum lysate was thawed on ice and diluted to 0.8 mg/mL. The lysate was aliquoted, and each aliquot was incubated with either a vehicle control (DMSO), 34 (dissolved in DMSO), or varying concentrations of 31 (dissolved in DMSO) at 0.01 µM, 0.1 µM, 10 µM, 50 µM, and 100 µM. Subsequently, the samples were incubated at room temperature for 30 minutes using a rotating mixer. After distribution into a 96-well plate, the samples were treated with increasing concentrations of A.E.A. (v/v) ranging from 14% to 28% (14, 16, 18, 20, 22, 24, 26, and 28%). Following a 20-minute incubation at 37°C with shaking at 750 rpm, the samples were centrifuged at 4400 g for 35 minutes to remove precipitated proteins. The soluble fractions were then pooled in equal volumes into a single sample using the Bravo Automated Liquid Handling Platform. The pooled samples were subsequently prepared for LC-MS/MS analysis.
(§3) The raw LFQ-DIA intensity values of biological replicates across all conditions were normalized to the median abundance using Excel. The normalized values were then log2 transformed in Perseus (v2.0.10.0).^[58^] Missing values were imputed from a normal distribution (width 0.3, down shift 1.5), and p-values were obtained using a two-sample t-test over replicates with a permutation-based false discovery rate correction (FDR 0.05). Volcano plots were generated in RStudio using the EnhancedVolcano package (v. 1.20.0), ^[59^] plotting proteins by statistical significance (y-axis: –Log10 p-value) versus the magnitude of change (x-axis: log2 fold change of protein intensities for each compound condition relative to the vehicle control). The heatmap was generated in Perseus (v2.0.10.0). Dose-dependent curves were generated using normalized protein intensity values, expressed as a ratio to the vehicle control. Plots were created in GraphPad Prism (v8.3.0) using a nonlinear regression model.

[2] = tested on: Uncharacterized protein (W7KAL3); settings: 100 µM compound 34
Method: as §1, §2, §3

[3] = tested on: Uncharacterized protein (W7KAK7); settings: 100 µM compound 34
Method: as §1, §2, §3

[4] = tested on: Uncharacterized protein (W7KBT1); settings: 100 µM compound 34
Method: as §1, §2, §3

[5] = tested on: PCI domain-containing protein (W7JUC8); settings: 100 µM compound 34
Method: as §1, §2, §3

Stevor (W7K9U2) = settings: 100 µM compound 34
Method: as §1, §2, §3

[6] = tested on: Ubiquitin-like protein nedd8-like (W7JPX7); settings: 100 µM compound 34
Method: as §1, §2, §3

Antigen UB05 (W7JRY1) = settings: 100 µM compound 34
Method: as §1, §2, §3

[7] = tested on: Plasmodium RESA N-terminal domain-containing protein (W7KFM4); settings: 100 µM compound 34
Method: as §1, §2, §3

[8] = tested on: Ribosome associated membrane protein RAMP4 (W7KMX9); settings: 100 µM compound 34
Method: as §1, §2, §3

[9] = tested on: Uncharacterized protein (W7KFE6); settings: 100 µM compound 34
Method: as §1, §2, §3

[10] = tested on: Sugar phosphate phosphatase (W7K268); settings: 100 µM compound 34
Method: as §1, §2, §3

[11] = tested on: Pre-mRNA branch site protein p14 (Fragment) (W7JRR7); settings: 100 µM compound 34
Method: as §1, §2, §3

[12] = tested on: 2-C-methyl-D-erythritol 4-phosphate cytidylyltransferase (W7KNE8); settings: 100 µM compound 34
Method: as §1, §2, §3

[13] = tested on: Uncharacterized protein (W7K0G9); settings: 100 µM compound 34
Method: as §1, §2, §3

[14] = tested on: Erythrocyte membrane protein 1 (W7JQ66;W7K7Z8;W7KA08;W7KI56;W7KJ57); settings: 100 µM compound 34
Method: as §1, §2, §3

[15] = tested on: Pre-mRNA-splicing factor BUD31 (W7K941); settings: 100 µM compound 34
Method: as §1, §2, §3

[16] = tested on: WD repeat-containing protein 82 (W7K1H5); settings: 100 µM compound 34
Method: as §1, §2, §3

[17] = tested on: Uncharacterized protein (W7JZL0); settings: 100 µM compound 34
Method: as §1, §2, §3

[18] = tested on: DNA repair and recombination protein RAD54 (W7K6H8); settings: 100 µM compound 34
Method: as §1, §2, §3

[19] = tested on: Uncharacterized protein (W7KDE4); settings: 100 µM compound 34
Method: as §1, §2, §3

[20] = tested on: Protein RFT1 homolog (W7JM37); settings: 100 µM compound 34
Method: as §1, §2, §3

[21] = tested on: Dihydrolipoyl dehydrogenase (W7JVD0); settings: 100 µM compound 34
Method: as §1, §2, §3

[22] = tested on: Dual specificity protein phosphatase (W7KAW5); settings: 100 µM compound 34
Method: as §1, §2, §3

[23] = tested on: Small nuclear ribonucleoprotein Sm D1 (W7K576); settings: 100 µM compound 34
Method: as §1, §2, §3

[24] = tested on: Uncharacterized protein (W7KMZ2); settings: 100 µM compound 34
Method: as §1, §2, §3

**Q.** For `CN1CCN(Cc2ccc(O)c(NC(=O)c3cccc(Oc4cc(C(F)(F)F)ccn4)c3)c2)CC1` [Compound 31, N-(2-hydroxy-5-((4-methylpiperazin-1-yl)methyl)phenyl)-3-((4-(trifluoromethyl)pyridin-2-yl)oxy)benzamide], which log2FC ([1]; 10 µM) is on record?
**A.** Its log2FC is 0.49.

**Q.** What about the log2FC ([1]; 50 µM) of the same compound?
**A.** The log2FC was 0.58.

**Q.** What about the log2FC ([1]; 100 µM) of the same compound?
**A.** Its log2FC is 0.37.

**Q.** And the log2FC ([1]; 10^-2 µM)?
**A.** Its log2FC is 0.40.

**Q.** And the log2FC ([1]; 10^-3 µM)?
**A.** The log2FC was 0.28.

**Q.** Which results are given for `O=C(Nc1cc(CN2CCOCC2)ccc1F)c1cccc(Oc2cc(C(F)(F)F)ccn2)c1` [Compound 34, N-(2-Fluoro-5-(morpholinomethyl)phenyl)-3-((4-(trifluoromethyl)pyridin-2-yl)oxy)benzamide]?
**A.** log2FC [2]: -0.4853; log2FC [3]: -0.4093; log2FC [4]: 0.318; log2FC [5]: -0.3885; log2FC (Stevor (W7K9U2)): 0.3642; log2FC [6]: 0.3658; log2FC (Antigen UB05 (W7JRY1)): 0.5651; log2FC [7]: 0.3623; log2FC [8]: 0.4453; log2FC [9]: 0.3535; log2FC [10]: -0.3813; log2FC [11]: 0.3601; log2FC [12]: -1.336; log2FC [13]: -0.3881; log2FC [14]: 0.3804; log2FC [15]: 0.5199; log2FC [16]: -0.6516; log2FC [17]: -1.173; log2FC [18]: -0.7564; log2FC [19]: 0.5097; log2FC [20]: -0.6689; log2FC [21]: 0.3119; log2FC [22]: -0.5678; log2FC [23]: 0.401; log2FC [24]: 0.3762
